From patent US20090317419A1, “Tetramers” (Duke University, priority 2008, published 2009)
Read-outs that look alike come from different tables or passages of the source. Marks after values point to notes of the source that are not given here. Ends that are not written are not given here. * marks the point of attachment. Biotin = O=C1N[C@H]2[C@H](CS[C@H]2CCCCC(=O)*)N1

Tests used:
[1] = tested on: B cell subsets from naive C57BL/6 mice
Experimental: (§1) Cell isolation, serum collection, and PBMC isolations. Heparinized or non-heparanized blood was collected sub-mandibularly 10 days after immunizations. For preparation of peripheral blood lymphocytes for B cell tetramer analysis, PBMC were isolated from blood collected in heparinized tubes (0.2 ml) using Lympholyte M (Cederlane). For Luminex and ELISA assays, sera was isolated from non-heparanized blood and stored at −20° C. until use. Spleen, bone marrow (BM), and peritoneal cavity (PerC) cells were also collected. For most immunizations, tissues were harvested after the 4th boost, except for kinetic studies, in which tissues from mice were harvested after 1, 3 or 7 days after a single immunization. For BM preparations, femora and tibiae were removed, aspirated with tissue medium using 23 gauge needles, filtered with 70 μm cell strainers (BD labware), and RBC-depleted using Tris-buffered ammonium chloride lysis. For splenocyte preparation, spleens were harvested and dissociated into single-cell suspensions either by passage through 70 μm cell strainers in tissue medium or by using frosted glass slides, and blood erythrocytes were depleted with ammonium chloride lysis. For isolation of peritoneal cells, peritoneal cavities of sacrificed mice were lavaged by injection with 10 ml of PBS, followed by gentle massage of the abdomen, and withdrawal of the peritoneal exudates. BM, splenic, and peritoneal single cell suspensions were centrifuged at 1500 rpm for 5 min and resuspended in 5, 10, and 1 ml of tissue media, respectively, for cell counts and immunofluorescence staining. Cell counts were performed in duplicate on a Coulter ZI Dual Threshold Cell Counter (Coulter).
(§2) Antibodies and flow cytometry. Immunofluorescent staining of single cell suspensions (≧2×10^6) was conducted using pre-mixed combinations of fluorochrome-labeled antibodies and APC-conjugated B cell tetramers at empirically-determined optimal concentrations. All antibodies were from BD unless otherwise stated. […] Other reagents included biotinylated antibodies against dump channel markers: Thy1 (Ox7; Abcam), F4/80 (BM8; Abcam), CD11c (clone HL3), Gr-1 (clone RB6-8C5), TER-119, and NK-1.1 (clone PK136), secondary staining SA-Texas Red conjugate; v-amine live/dead violet dye (Molecular Probes), and Fc block (anti-CD16/32; clone 2.4G2).
(§3) Staining was conducted at 4° C. in several sequential steps in FACS staining buffer (1×PBS with 2% FCS, 0.1% NaN3), washing twice between steps. First, cells were incubated with v-amine live/dead dye for 15 min. Next, cells were stained with APC-labeled tetramers for 30 min. Where applicable, this was preceded by addition of cold tetramer at 10 fold molar excess for 1 h. Finally, cells were stained with Fc block for 30 min, followed by incubation with combinations of primary antibody cocktails for 30 min, and secondary staining with SA-Texas Red for 30 min.
(§4) Data were acquired using an LSRII flow cytometer and Cell Quest software (BD Immunocytometry systems). A minimum of 250000 events were acquired per sample. FACS Analysis was performed using FlowJo software (Tree Star). For analysis, single cells were positively gated based on their forward scatter height vs. forward scatter area and side scatter height vs. side scatter area profiles, lymphocytes were then positively gated based on their forward and side scatter profile (live lymphocyte gate), residual dead cells were excluded with negative gating on v-amine live/dead dye, and all irrelevant non-B cells were excluded with negative gating on dump markers Thy1, F4/80, CD11c, Gr-1, TER-119, and NK-1.1.
To examine if gp41 2F5 MPER epitope reactivity across B cell subsets mapped similarly on the IgH^b allotype, reactivity to gp41 2F5 MPER tetramers was measured by measuring the percentage of APC-labeled gp41 2F5 MPER tetramer-reactive cells in C57BL/6 bone marrow, splenic, and peritoneal B cell subsets (Table 10).

[2] = tested on: total naïve splenic BALB/c B cells; conditions: APC-labeled tetramer
Experimental: as §1, §2, §3, §4

[3] = tested on: total naïve splenic C57BL/6 B cells; conditions: C57BL/6, APC-labeled tetramer
Experimental: as §1, §2, §3, §4

[4] = tested on: mAb 13H11 and mAb 2F5 on beads; conditions: flow cytometry, mAbs 13H11 and 2F5 on beads
Experimental: Antibody-coated beads. Carboxyl-polystyrene beads (3.0-3.4 μm) (Spherotech, Inc., Lake Forest, Ill.) were resuspended in 0.01 M sodium acetate buffer (pH 5.0) and reacted (20° C.×1 hr) with 1-ethyl-3-(3-dimethylaminopropyl) carbodiimide hydrochloride (EDC) (Sigma-Aldrich, Co., St. Louis, Mo.) at a ratio of 3.1 mg beads to 1 mg EDC. Beads were washed with sodium acetate buffer, resuspended in a minimal volume before adding purified mAb in the same buffer (ratio of 16 mg beads to 1 mg mAb), incubated (20° C.×2 hrs), then washed with sodium acetate buffer. Beads were resuspended at 5% in PBS containing 1% bovine serum albumin and 0.02% sodium azide.
Use of antibody-coated beads and cell lines for tetramer quality control. Tetramer stocks were diluted to twice the desired final concentration in PBS containing 1% BSA. An equal volume of beads or cells at 5×10^5 up to 2×10^6 per sample were mixed with tetramer and incubated (4° C.×30 min). Beads or cells were washed with PBS+1% BSA before being fixed in 2% methanol-free formaldehyde (Polysciences, Inc, Warrington, Pa.) in PBS. Samples were stored at 4° C. prior to being analyzed by flow cytometry (BD LSR II, Becton Dickinson, Mountain View, Calif.). Data were analyzed using FlowJo (Tree Star, Ashland, Oreg.). For tetramer titration 40-80 ng tetramer per 10^6 cells/beads was serially diluted over 8-12 points. Optimal concentrations determined by this method were used for subsequent experiments. For cold competition experiments the incubation step was performed by staining with 10-fold excess unlabeled tetramer (4° C.×30 min) prior to the addition of APC-labeled tetramer. For cell dilution experiments, a mixture of mAb cell lines was made and then 1:10 serial dilutions of cells prepared. For cross competition experiments, mixtures of cells were prepared and then stained singly with anti-IgG reagents or tetramer, or the cells were doubly stained with both reagents either sequentially or concurrently.

Biotin-GGGQQEKNEQELLELDKWASLWN [gp41 MPER tetramer]
% of subset binding tetramer ± SEM ([1]; C57BL/6, Bone marrow, Immature): 0.30 ± 0.04% | % of subset binding tetramer ± SEM ([1]; C57BL/6, Bone marrow, MF): 0.15 ± 0.06% | % of subset binding tetramer ± SEM ([1]; C57BL/6, Bone marrow, Pro/pre): 0.05 ± 0.01% | % of subset binding tetramer ± SEM ([1]; C57BL/6, Bone marrow, T1): 0.62 ± 0.10^d % | % of subset binding tetramer ± SEM ([1]; C57BL/6, Bone marrow, T2): 0.54 ± 0.09^d % | % of subset binding tetramer ± SEM ([1]; C57BL/6, Peritoneum, B1a): 0.52 ± 0.08% | % of subset binding tetramer ± SEM ([1]; C57BL/6, Peritoneum, B1b): 0.50 ± 0.13% | % of subset binding tetramer ± SEM ([1]; C57BL/6, Peritoneum, B2): 0.32 ± 0.09% | % of subset binding tetramer ± SEM ([1]; C57BL/6, Spleen, MF): 0.16 ± 0.02% | % of subset binding tetramer ± SEM ([1]; C57BL/6, Spleen, MZ): 0.25 ± 0.04% | % of subset binding tetramer ± SEM ([1]; C57BL/6, Spleen, T1): 0.24 ± 0.06% | % of subset binding tetramer ± SEM ([1]; C57BL/6, Spleen, T2): 0.21 ± 0.07% | fraction of total naïve splenic B cell repertoire binding tetramer [2]: > 5% | fraction of total naïve splenic B cell repertoire binding tetramer [3]: < 0.3% | binding to antibody-coated beads [4]: bound to both the non-neutralizing mAb 13H11 and the neutralizing anti-gp41 mAb 2F5
